Literature values in patent publication US10702482B2, “Slow-release solid oral compositions” (GNOSIS SPA, priority 2013, dated 2020).

C[S+](CC[C@H](N)C(=O)O)C[C@H]1O[C@@H](n2cnc3c(N)ncnc32)[C@H](O)[C@@H]1O (stereo partly drawn) [SAMe, S-adenosyl-L-methionine]
oral bioavailability (in words): rather poor oral bioavailability
